Series [1] can be described thus: Apparent permeability from basolateral to apical side in human Caco2 cells. In kind it is ADME, cell-based. The conditions noted are these: Caco-2.
Series [2] in a line: Apparent permeability from apical to basolateral side in human Caco2 cells. In kind it is ADME, cell-based. The conditions noted are these: Caco-2.
Series [3] can be described thus: AUC in rat at 10 mg/kg, po. In kind it is ADME, organism-based. More on the design: dose 10 mg/kg, route oral. Conditions: plasma.
A short description of series [4]: Clearance in rat at 5 mg/kg, iv. In kind it is ADME, organism-based. More on the design: dose 5 mg/kg, route intravenous. Conditions: in vivo.
Series [5] can be described thus: Volume of distribution at steady state in rat at 5 mg/kg, iv. In kind it is ADME, organism-based. Conditions: in vivo, read-out: Vdss. On the set-up: dose 5 mg/kg, route intravenous.
Series [6] in a line: Solubility of the compound in PBS buffer at pH 7.4. In kind it is physicochemical.
The nature of series [7]: Cmax in rat at 10 mg/kg, po. More on the design: dose 10 mg/kg, route oral. Conditions: in vivo. In kind it is ADME, organism-based.
A short description of series [8]: Clearance in rat microsomes. In kind it is ADME, Microsome.
Series [9] is described as follows: Half life in rat microsomes. In kind it is ADME, Microsome.
The nature of series [10]: Half life in rat at 5 mg/kg, iv. In kind it is ADME, organism-based. Conditions: in vivo. On the set-up: dose 5 mg/kg, route intravenous.
The nature of series [11]: Bioavailability in rat at 5 mg/kg, iv. In kind it is ADME, organism-based. The conditions noted are these: in vivo.
Series [12] is described as follows: Lipophilicity, log D of the compound at pH 7.4. In kind it is physicochemical. Conditions: buffer.

The results in this text go back to ChEMBL document CHEMBL2417393, “Structure guided optimization of a fragment hit to imidazopyridine inhibitors of PI3K” (Bioorg Med Chem Lett, 2013).

≈ marks a conversion by molar mass, not a printed value.

For the molecule `COc1cc(-c2ccc3nc(NC(C)=O)sc3c2)cnc1N`, the apparent permeability from basolateral to apical (Papp B→A) in series [1] was 18 ×10⁻⁶ cm/s. Moreover, the apparent permeability from apical to basolateral (Papp A→B) in series [2] amounted to 6.7 ×10⁻⁶ cm/s.
In series [3], `CC(=O)Nc1nc2ccc(-c3ccc(N)nc3)cc2s1` registered an AUC of 16 µM·h. Moreover, the results for the clearance in [4] and in series [8] were 19 mL/min/kg and 4 µL/min/mg, respectively. In series [5], the Vd amounted to 3.6 L/kg. For the same molecule, in series [6], the concentration in solution (solubility) was 4.2 µM (≈ 1.19 µg/mL). Besides, the Papp B→A in series [1] was determined as 42 ×10⁻⁶ cm/s. Moreover, the concentration in series [7] peaked (Cmax) at 2500 nM. Also, the apical-to-basolateral permeability (Papp A→B) in series [2] worked out at 46 ×10⁻⁶ cm/s. In addition, the results for the half-life in series [9] and in [10] were 3.12 h and 2.5 h, respectively. This molecule showed a bioavailability in series [11] of 57%.
`CC(=O)Nc1nc2ccc(-c3cnc(N)c(C(F)(F)F)c3)cc2s1` returned an AUC in series [3] of 18 µM·h. In series [6], this molecule gave a solubility of 1.5 µM (≈ 0.529 µg/mL). Besides, the apparent permeability from basolateral to apical (Papp B→A) in series [1] amounted to 13 ×10⁻⁶ cm/s. The same molecule displayed a maximum concentration (Cmax) in series [7] of 2900 nM. In series [8], this molecule returned a clearance of 8 µL/min/mg. Moreover, the Papp A→B in series [2] was found to be 16 ×10⁻⁶ cm/s. Also, the half-life in series [9] worked out at 13 h.
As to `Nc1ccc(-c2ccc3nc(NC(=O)CN4CCCCC4)sc3c2)cn1`, the solubility in series [6] turned out to be 7.1 µM (≈ 2.61 µg/mL).
The same measure, in the same setting: for `Nc1ccc(-c2ccc3nc(NC(=O)CCCN4CCCCC4)sc3c2)cn1` the value was 28 µM (≈ 11.1 µg/mL).
Still for that read-out and setting: for `Nc1ncc(-c2ccc3nc(NC(=O)CCCN4CCCCC4)sc3c2)cc1C(F)(F)F` the value was 56 µM (≈ 26 µg/mL).
The same measure, in the same setting: for `Nc1ncc(-c2ccc3nc(NC(=O)CCCN4CCOCC4)sc3c2)cc1C(F)(F)F` the value was 8.3 µM (≈ 3.86 µg/mL).
As for `CC(=O)Nc1cn2cc(-c3cnc(N)c(C(F)(F)F)c3)ccc2n1`, the area under the curve (AUC) in series [3] was 198 µM·h. Besides, the clearance is 2 mL/min/kg in series [4] and 8 µL/min/mg in series [8]. For the same molecule, in [5], the Vd was 0.68 L/kg. For the same molecule, the Papp B→A in series [1] stood at 40 ×10⁻⁶ cm/s. This molecule also came in with a Cmax in series [7] of 15700 nM. For the same molecule, in series [2], the Papp A→B was 40 ×10⁻⁶ cm/s. Further, the half-life in series [9] was 13 h; in series [10], 3 h. This molecule also had a bioavailability in series [11] of 95%.
Consider `CC(=O)Nc1cn2cc(-c3cnc(N)c(C(F)(F)F)c3)ncc2n1`, for which the concentration in solution in series [6] (solubility) was 1 µM (≈ 0.336 µg/mL).
On the same count and under the same terms, for `CC(=O)Nc1nc2ccc(-c3cnc(N)c(C(F)(F)F)c3)cc2o1` the value was 1.3 µM (≈ 0.437 µg/mL); for `CC(=O)Nc1ncc2cc(-c3cnc(N)c(C(F)(F)F)c3)ccc2n1`, 0.5 µM (≈ 0.174 µg/mL); for `CC(=O)Nc1cn2cc(-c3cnc(N)c(C(F)(F)F)c3)cnc2n1`, 4.8 µM (≈ 1.61 µg/mL).
The same measure, in the same setting: the value for `CC(=O)Nc1nc2ccc(-c3cnc(N)c(C(F)(F)F)c3)cc2n1C` was 25 µM (≈ 8.73 µg/mL).
In the case of `COC(=O)c1ccc2nc(NC(C)=O)sc2c1`, the pH-dependent lipophilicity (logD) in series [12] turned out to be 1.5.

What is called Papp B→A is how fast a substance crosses the layer from the basolateral side. For orientation: Papp A→B means how fast a substance crosses the layer from the apical side. Broadly, the AUC is the area under the concentration-time curve, a measure of exposure. High values mean more exposure, low ones less exposure. One may read the solubility as how much of the substance goes into solution per volume. Higher therefore signals a readily soluble substance. Usually Cmax stands for the maximum level reached in the sampled fluid or tissue. Broadly, the half-life is how long it takes for the measured level to halve. High values mean slow loss, low ones fast loss. Broadly, the bioavailability is dose-corrected exposure relative to a reference, in per cent. In general, logD refers to lipophilicity at a set pH, counting ionised and neutral species. A high value points to a more lipophilic compound.
